System: potato leafhopper (Empoasca fabae Harris)
Assay: Test D: control of potato leafhopper on bean plant, contact and/or systemic
Assay type: in vivo
Conditions: sprayed at 50 ppm, 18 to 21 day old adults on Longio bean plant, 6 days, 19-21° C., 50-70% relative humidity, read-out: pest control: mortality
Experimental: Test compounds were formulated using a solution containing 10% acetone, 90% water and 300 ppm X-77™ Spreader Lo-Foam Formula non-ionic surfactant containing alkylarylpolyoxyethylene, free fatty acids, glycols and isopropanol (Loveland Industries, Inc. Greeley, Colo., USA). The formulated compounds were applied in 1 mL of liquid through a SUJ2 atomizer nozzle with ⅛ JJ custom body (Spraying Systems Co. Wheaton, Ill., USA) positioned 1.27 cm (0.5 inches) above the top of each test unit. All experimental compounds in these tests were sprayed at 250 ppm replicated three times. After spraying of the formulated test compound, each test unit was allowed to dry for 1 h and then a black, screened cap was placed on top. The test units were held for 6 days in a growth chamber at 25° C. and 70% relative humidity. Plant feeding damage was then visually assessed based on foliage consumed.
For evaluating control of potato leafhopper (Empoasca fabae Harris) through contact and/or systemic means, the test unit consisted of a small open container with a 5-6-day old Longio bean plant (primary leaves emerged) inside. White sand was added to the top of the soil and one of the primary leaves was excised prior to application. […] Each test unit was then visually assessed for insect mortality.

Structure (SMILES): O=C(NCc1ccccn1)c1cnc(C2=NOC(c3cc(Cl)cc(Cl)c3)(C(F)(F)F)C2)nc1C(F)(F)F (centres unmarked) [Compound 7, 2-[5-(3,5-dichlorophenyl)-4,5-dihydro-5-(trifluoromethyl)-3-isoxazolyl]-N-(2-pyridinylmethyl)-4-(trifluoromethyl)-5-pyrimidinecarboxamide]
- mortality at 50 ppm: ≥ 80%

Structure (SMILES): O=C(NCC(F)(F)F)c1cnc(C2=NOC(c3cc(Cl)cc(Cl)c3)(C(F)(F)F)C2)nc1C(F)(F)F (centres unmarked) [Compound 10, 2-[5-(3,5-dichlorophenyl)-4,5-dihydro-5-(trifluoromethyl)-3-isoxazolyl]-N-(2,2,2-trifluoroethyl)-4-(trifluoromethyl)-5-pyrimidinecarboxamide]
- mortality at 50 ppm: ≥ 80%
